Assay results published in patent publication US10370405B2, “C-3 novel triterpenone with C-28 amide derivatives as HIV inhibitors” (HETERO LABS LIMITED, priority 2016, dated 2019).
Where two headings read alike, the source gives them in different places.

Experiments:
HIV-1 strain 92HT599 = assay: Antiviral activity: p24 estimation in MT2 cells infected with HIV-1; format: cell-based; conditions: for IC50: Human immunodeficiency virus 1, MT2; for inhibition at 0.01 µM / inhibition at 0.1 µM / inhibition at 1 µM: Human immunodeficiency virus 1, MT2 cells, HIV-1 92HT599, p24, ~96 hours
Procedure: MT2 cells were infected with HIV-1 strain 92HT599 (10 TCID 50/30000 cells). The infected cells were plated at the concentration of ˜30 000 cells per well in 96 well plate. Test compound was added to the micro plate in defined format with the final concentration of DMSO (vehicle) is not more than 1%. Incubation was carried out in CO2 incubator for ˜96 hours for viral infection. At the end of incubation period an aliquot from each well was taken for p24 estimation. The quantitation of p24 is an index for antiviral activity of the compound. Percent inhibition was calculated with reference to control values (vehicle controls). P-24 estimation was carried out using Advance biosciences kit as per the procedure detailed by supplier.

[1] = Single dose oral pharmacokinetic study; format: in vivo; conditions: mouse, plasma; Mice oral PK @30 mg/kg
Procedure: The test item was administered through oral route to animals (rat/mice) at 30 mg/kg dose in a suitable vehicle (10% Solutol+20% PEG) at 10 ml/kg dose volume. Blood samples (˜50 μL at each time point) were collected from retro-orbital plexus using K3 EDTA as anticoagulant in eppendorf tubes at defined time intervals 30 minutes, 1 hour, 2 hour, 4 hour, 8 hour, 24 hour & 48 hour under light ether anaesthesia. The samples were centrifuged at 3500×g to separate plasma and stored at −80° C. until analysis. Plasma […] for Mice were processed as per described in sample preparation.
Standard solutions of the test compound 1 mg/mL solutions were prepared in DMSO and further dilutions were made in methanol. The calibration curve samples for LCMSMS analysis were prepared by spiking 25 μl of Mice plasma with 2.5 μl and of the appropriate working standard solution to obtain final concentrations 0.078, 0.156, 0.312, 0.625, 1.25, 2.5, 5, 10, 20 & 40 µg/ml. To the test compound plasma extraction was carried out using Acetonitrile precipitation. After reconstitution with solvent (50% Acetonitrile in Buffer) samples were analyzed by LCMSMS to get the concentrations to calculate PK Parameters.

[2] = 0% serum, read-out: Antiviral activity IC50 (nM) 0%
[3] = read-out: Antiviral activity IC50 (nM) 40% serum

Procedure for in vitro: On day 1 calculate the number of cells required for the assay and seed 3×10^4 cells in 200 μl per well. Weigh the compound and dissolve it in DMSO to get 10 mM stock which is further diluted to 3 mM and 1 mM. The drugs from these stocks were added to plate to get final concentration of 100 μM, 30 μM and 10 μM. […] Incubate for 4 days in 5% CO2 incubator at 37° C. On day 4, 100 μl of medium was removed from each well without disturbing the cells. Add 10 μl of MTT reagent and incubate for 4 hours at 5% CO2 incubator at 37° C. for formation of crystals. Add 200 μl of 0.1N acidic isopropanol to dissolve the crystals and read the plate at 590 nm.

Row | Structure (SMILES) | IC50 (HIV-1 strain 92HT599; [2]) [nM] | IC50 (HIV-1 strain 92HT599; [3]) [nM] | inhibition at 0.01 µM (HIV-1 strain 92HT599) [%] | inhibition at 0.1 µM (HIV-1 strain 92HT599) [%] | inhibition at 1 µM (HIV-1 strain 92HT599) [%] | viability at 4 days, 10 μM (in vitro) [%] | viability at 4 days, 30 μM (in vitro) [%] | viability at 4 days, 100 μM (in vitro) [%] | AUC(0-t) [1] [µg·h/mL] | Cmax [1] [ng/mL]
1 | CC(C)C1=C2[C@H]3CC[C@@H]4[C@@]5(C)CC[C@H](OC(=O)[C@H]6C[C@@H](C(=O)O)C6(C)C)C(C)(C)[C@@H]5CC[C@@]4(C)[C@]3(C)CC[C@@]2(C(=O)N2CCC[C@H]2CN2CCC(F)CC2)CC1=O [Example 10, (1R,3S)-3-((((3aR,5aR,5bR,7aR,9S,11aR,11bR,13aS)-3a-((S)-2-((4-fluoropiperidin-1-yl)methyl)pyrrolidine-1-carbonyl)-1-isopropyl-5a,5b,8,8,11a-pentamethyl-2-oxo-3,3a,4,5,5a,5b,6,7,7a,8,9,10,11,11a,11b,12,13,13a-octadecahydro-2H-cyclopenta[a]chrysen-9-yl)oxy)carbonyl)-2,2-dimethylcyclobutane-1-carboxylic acid] | 1.06 | 0.93 | 97 | 100 | 100 | 31 | 4 | 4 |  | 
2 | CC(C)C1=C2[C@H]3CC[C@@H]4[C@@]5(C)CC[C@H](OC(=O)[C@H]6C[C@@H](C(=O)O)C6(C)C)C(C)(C)[C@@H]5CC[C@@]4(C)[C@]3(C)CC[C@@]2(C(=O)N2CCC[C@H]2C(C)(C)O)CC1=O [Example 9, (1R,3S)-3-((((3aR,5aR,5bR,7aR,9S,11aR,11bR,13aS)-3a-((S)-2-(2-hydroxypropan-2-yl)pyrrolidine-1-carbonyl)-1-isopropyl-5a,5b,8,8,11a-pentamethyl-2-oxo-3,3a,4,5,5a,5b,6,7,7a,8,9,10,11,11a,11b,12,13,13a-octadecahydro-2H-cyclopenta[a]chrysen-9-yl)oxy)carbonyl)-2,2-dimethylcyclobutane-1-carboxylic acid] | 7.44 | 342 | 100 | 100 | 100 | 40 | 9 | 8 | 107 | 10900
3 | CC(C)C1=C2[C@H]3CC[C@@H]4[C@@]5(C)CC[C@H](OC(=O)[C@H]6C[C@@H](C(=O)O)C6(C)C)C(C)(C)[C@@H]5CC[C@@]4(C)[C@]3(C)CC[C@@]2(C(=O)N2CC[C@@H](N3CCCC3)C2)CC1=O [Example 4, (1R,3S)-3-((((3aR,5aR,5bR,7aR,9S,11aR,11bR,13aS)-3a-((R)-[1,3′-bipyrrolidine]-1′-carbonyl)-1-isopropyl-5a,5b,8,8,11a-pentamethyl-2-oxo-3,3a,4,5,5a,5b,6,7,7a,8,9,10,11,11a,11b,12,13,13a-octadecahydro-2H-cyclopenta[a]chrysen-9-yl)oxy)carbonyl)-2,2-dimethylcyclobutane-1-carboxylic acid] | 0.68 | 54.5 | 100 | 100 | 100 | 62 | 6 | 2 |  | 
4 | CC(C)C1=C2[C@H]3CC[C@@H]4[C@@]5(C)CC[C@H](OC(=O)[C@H]6C[C@@H](C(=O)O)C6(C)C)C(C)(C)[C@@H]5CC[C@@]4(C)[C@]3(C)CC[C@@]2(C(=O)NC(C)(C)c2ncc(-c3ccc(Cl)cc3)[nH]2)CC1=O [Example 11, (1R,3S)-3-((((3aR,5aR,5bR,7aR,9S,11aR,11bR,13aS)-3a-((2-(5-(4-chlorophenyl)-1H-imidazol-2-yl)propan-2-yl)carbamoyl)-1-isopropyl-5a,5b,8,8,11a-pentamethyl-2-oxo-3,3a,4,5,5a,5b,6,7,7a,8,9,10,11,11a,11b,12,13,13a-octadecahydro-2H-cyclopenta[a]chrysen-9-yl)oxy)carbonyl)-2,2-dimethylcyclobutane-1-carboxylic acid] | 2.93 | 118 | 92 | 99 | 99 | 48 | 3 | 4 | 143 | 10000
5 | CC(C)C1=C2[C@H]3CC[C@@H]4[C@@]5(C)CC[C@H](OC(=O)[C@H]6C[C@@H](C(=O)O)C6(C)C)C(C)(C)[C@@H]5CC[C@@]4(C)[C@]3(C)CC[C@@]2(C(=O)N2CCC[C@H]2CN2CCCC2)CC1=O [Example 13, (1R,3S)-3-((((3aR,5aR,5bR,7aR,9S,11aR,1 bR,13aS)-1-isopropyl-5a,5b,8,8,11a-pentamethyl-2-oxo-3a-((S)-2-(pyrrolidin-1-ylmethyl)pyrrolidine-1-carbonyl)-3,3a,4,5,5a,5b,6,7,7a,8,9,10,11,11a,11b,12,13,13a-octadecahydro-2H-cyclopenta[a]chrysen-9-yl)oxy)carbonyl)-2,2-dimethylcyclobutane-1-carboxylic acid] | 0.73 | 17.1 | 96 | 100 | 100 | 69 | 26 | 28 | 320 | 17000
6 | CC(C)C1=C2[C@H]3CC[C@@H]4[C@@]5(C)CC[C@H](OC(=O)[C@H]6C[C@@H](C(=O)O)C6(C)C)C(C)(C)[C@@H]5CC[C@@]4(C)[C@]3(C)CC[C@@]2(C(=O)NC(C)(C)c2ncc(-c3ccccc3)[nH]2)CC1=O [Example 8, (1R,3S)-3-((((3aR,5aR,5bR,7aR,9S,11aR,11bR,13aS)-1-isopropyl-5a,5b,8,8,11a-pentamethyl-2-oxo-3a-((2-(5-phenyl-1H-imidazol-2-yl)propan-2-yl)carbamoyl)-3,3a,4,5,5a,5b,6,7,7a,8,9,10,11,11a,11b,12,13,13a-octadecahydro-2H-cyclopenta[a]chrysen-9-yl)oxy)carbonyl)-2,2-dimethylcyclobutane-1-carboxylic acid] | 3.7 | 14.2 | 100 | 100 | 100 | 29 | 5 | 2 | 265 | 15200
7 | CC(C)C1=C2[C@H]3CC[C@@H]4[C@@]5(C)CC[C@H](OC(=O)[C@H]6C[C@@H](C(=O)O)C6(C)C)C(C)(C)[C@@H]5CC[C@@]4(C)[C@]3(C)CC[C@@]2(C(=O)N2CCC[C@H]2CN2CCC(F)(F)CC2)CC1=O [Example 7, (1R,3S)-3-((((3aR,5aR,5bR,7aR,9S,11aR,11bR,13aS)-3a-((S)-2-((4,4-difluoropiperidin-1-yl)methyl)pyrrolidine-1-carbonyl)-1-isopropyl-5a,5b,8,8,11a-pentamethyl-2-oxo-3,3a,4,5,5a,5b,6,7,7a,89,10,11,11a,11b,12,13,13a-octadecahydro-2H-cyclopenta[a]chrysen-9-yl)oxy)carbonyl)-2,2-dimethylcyclobutane-1-carboxylic acid] | 24.7 | 313 | 100 | 100 | 100 | 65 | 9 | 8 | 28.8 | 7410
8 | CC(C)C1=C2[C@H]3CC[C@@H]4[C@@]5(C)CC[C@H](OC(=O)[C@H]6C[C@@H](C(=O)O)C6(C)C)C(C)(C)[C@@H]5CC[C@@]4(C)[C@]3(C)CC[C@@]2(C(=O)N2CCC[C@H]2CN2CCC[C@H]2CO)CC1=O [Example 5, (1R,3S)-3-((((3aR,5aR,5bR,7aR,9S,11aR,11bR,13aS)-3a-((S)-2-(((S)-2-(hydroxymethyl)pyrrolidin-1-yl)methyl)pyrrolidine-1-carbonyl)-1-isopropyl-5a,5b,8,8,11a-pentamethyl-2-oxo-3,3a,4,5,5a,5b,6,7,7a,8,9,10,11,11a,11b,12,13,13a-octadecahydro-2H-cyclopenta[a]chrysen-9-yl)oxy)carbonyl)-2,2-dimethlcyclobutane-1-carboxylic acid] | 0.93 | 25.5 | 100 | 100 | 100 | 70 | 70 | 73 |  | 
